Laboratory results published in publication PMC8745710, “Biological Evaluation and Molecular Docking Studies of Novel 1,3,4-Oxadiazole Derivatives of 4,6-Dimethyl-2-sulfanylpyridine-3-carboxamide” (International Journal of Molecular Sciences, 2022).
Read-outs that look alike come from different tables or passages of the source.

Assays:
[1] = tested on: NHDF (normal human dermal fibroblasts); assay: MTT assay, NHDF; assay type: cell-based; details: 48 h incubation, read-out: IC50 [µM] ± SD NHDF
Text: (§1) The MTT (3-[4,5-dimethylthiazol-2-yl]-2,5-diphenyl tetrazolium bromide) assay was used to determine the cytotoxicity of tested compounds towards different cell lines: normal human dermal fibroblasts (NHDF), kidney epithelial cells (VERO), fibroblasts from Chinese hamster lung (V79) and four human cancer cells: A549 (pulmonary basal cell alveolar adenocarcinoma), MCF-7 (breast adenocarcinoma), LoVo (colon adenocarcinoma), and its drug resistant subline LoVo/Dx. The cell lines used in this study express COX-1 and COX-2. The LoVo line expressed COX-1, the LoVo/Dx subline express both COX-1 and COX-2 [61].
(§2) Each cell line was grown in the culture media recommended by supplier. Before the test they were detached with trypsin/EDTA solution, then to neutralize the effect of Trypsin/EDTA solution, FBS containing medium was used. After centrifugation the cells were stained with 0.4% solution of trypan blue, counted and inspected for viability using microscope. In the end, cells were inserted into 96-well culture plates and incubated in CO2 incubator (37 °C, 24 h). The number of cells was 2 × 10^3 cells per well. The tested compounds with different concentrations (5, 10, 20, 50, 100 µM) were dissolved in DMSO and then added to the cells (the final DMSO concentration was 0.1%). The cultures were incubated for another 48 h. After that time the cells were collected to be used in tests.
(§3) MTT assay was used to find out how tested compounds influence the metabolic activity of investigated cell lines. The cells were incubated with tested compounds. After removing of supernatant, 1 mg/mL of MTT solution in MEM was added to the plate (to each well) and then the plates were incubated at 37 °C for 2 h. The medium was removed again, and formazan crystals were dissolved in isopropanol. A Varioscan LUX microplate reader (Thermo Fisher Scientific, Waltham, MA, USA) was used to measure absorbance at 570 nm.

[2] = tested on: MCF-7 (breast adenocarcinoma); assay: MTT assay, MCF-7; assay type: cell-based; details: Homo sapiens, MCF7, 48 h incubation, read-out: IC50 [µM] ± SD MCF-7
Text: as §1, §2, §3

COX-1 = target: T1, COX-1 (Ovis aries, UniProt P05979); assay: COX colorimetric inhibitor screening assay, COX-1; assay type: biochemical; details: after 2 min of incubation, n = 5; for IC50: read-out: IC50 [µM] ± SD COX-1
T1 construct: purchased Cayman Chemical Company, Ann Arbor, MI, USA
T1 sequence (P05979 25-600): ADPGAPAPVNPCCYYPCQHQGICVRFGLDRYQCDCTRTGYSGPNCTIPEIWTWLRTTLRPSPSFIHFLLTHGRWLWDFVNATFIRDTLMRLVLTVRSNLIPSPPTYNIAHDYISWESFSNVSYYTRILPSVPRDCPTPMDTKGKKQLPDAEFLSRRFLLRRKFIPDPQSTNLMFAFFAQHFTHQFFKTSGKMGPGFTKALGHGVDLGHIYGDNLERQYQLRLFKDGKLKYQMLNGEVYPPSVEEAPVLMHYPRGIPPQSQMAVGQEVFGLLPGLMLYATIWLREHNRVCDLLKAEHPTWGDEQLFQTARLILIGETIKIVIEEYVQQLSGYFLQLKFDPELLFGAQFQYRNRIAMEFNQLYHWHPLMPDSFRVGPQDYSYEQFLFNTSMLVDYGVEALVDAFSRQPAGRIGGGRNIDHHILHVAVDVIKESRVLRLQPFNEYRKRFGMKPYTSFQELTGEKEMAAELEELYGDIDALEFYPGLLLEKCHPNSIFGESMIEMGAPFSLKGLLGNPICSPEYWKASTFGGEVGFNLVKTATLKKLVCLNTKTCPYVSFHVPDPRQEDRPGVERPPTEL
Text: The compounds were studied for their potencies to inhibit COX-1 and COX-2 enzymes by the colorimetric inhibitor screening assay.
A COX Colorimetric Inhibitor Screening Assay Kit, produced by Cayman Chemical Company, Ann Arbor, MI, USA, was used. It used the colorimetric monitoring of oxidized form of TMPD (N,N,N′,N′-tetramethyl-p-phenylenediamine) which was produced during reduction of prostaglandin G2 (PGG2) to PGH2. […] Reagents used it this assay were: COX-1 and COX-2 enzymes, Tris-HCl buffer, solutions of heme in DMSO and TMPD, arachidonic acid, KOH. To be sure that 100% enzymatic activity was achieved each sample was measured 3 times. The probes were measured after two minutes of incubation with tested compounds in the comparison to the initial activity of enzyme.

LoVo cell line = assay: Intracellular ROS level (DCFH-DA), LoVo cells; assay type: cell-based; details: Homo sapiens, 4 h, compound 100 μM
Method: Two cell lines were chosen for investigations: V79 (Chinese hamster lung fibroblasts) and LoVo. V79 normal cells are widely used as the cell line tested in the studies of the oxidative stress. These cells are a living system model to explain the mechanism of ROS effects caused by varied compounds [73].
First, the tested compounds (in concentration of 100 μM) were added to the cell cultures and cells were incubated for 4 h. Then cells were washed and incubated with DCFH-DA (non-fluorescent probe) in dark at 37 °C for 2 h at CO2 [79]. Non-fluorescent, non-polar DCFH-DA (2′7′-dichlorodihydrofluorescein diacetate) at concentration of 25 μM was used as a marker of oxidative stress to determine the intracellular ROS levels. […] In this time, DCFH-DA which penetrated into the cells, was hydrolyzed by esterases to polar, non-fluorescent DCFH (2′7′-dichlorodihydrofluorescein) and then oxidized in the presence of ROS (reactive oxygen species) to fluorescent DCF (2′7′-dichlorofluorescein). DCF was measured using Varioscan LUX microplate reader (Thermo Fisher Scientific, Waltham, MA, USA) at λex = 485 nm and λem = 535 nm.
E is the culture with the tested compound and E0 is the negative control without the compound. The routine statistical methods: two-way analysis of variance ANOVA as well as Tukey’s post-hoc test were used. It allowed us to determine the statistical significance of results, where p < 0.05 was set as significant. The statistical indicators were estimated using Statistica 13.3 software.

[3] = tested on: V79 (fibroblasts from Chinese hamster lung); assay: MTT assay, V79; assay type: cell-based; details: Cricetulus griseus, Fibroblast, 48 h incubation, read-out: IC50 [µM] ± SD V79
Text: as §1, §2, §3

[4] = with H2O2 (100 μM, 30 min), n = 5, read-out: ROS scavenging activity, Mean E/E0 ± SD, with H2O2
[5] = without H2O2, n = 5, read-out: ROS scavenging activity, Mean E/E0 ± SD, without H2O2

| melting point [°C] | IC50 [2] [µM] | IC50 (COX-1) [µM] | SMILES | IC50 [1] [µM] | activity at 100 µM (LoVo cell line; [4]) [%] | activity at 100 µM (LoVo cell line; [5]) [%] | IC50 [3] [µM] | IC50 [µM] ± SD COX-1 (COX-1) |
| --- | --- | --- | --- | --- | --- | --- | --- | --- |
| 253 to 255 | 8.29 ± 4.45 | 86.2 ± 2.6 | Cc1cc(C)c(C(=O)NCc2nn(CC(=O)NN=Cc3ccc(C(F)(F)F)cc3)c(=S)o2)c(S)n1 [Compound 11, 4,6-Dimethyl-N-{[4-(2-(2-(4-trifluoromethylbenzylidene)hydrazinyl)-2-oxoethyl)-5-sulfanylidene-4,5-dihydro-1,3,4-oxadiazole-2-yl]methyl}-2-sulfanylpyridine-3-carboxamide] | 59 ± 3.62 | 84 ± 17 | 124 ± 65 | 55.2 ± 2.75 |  |
| 201 to 205 | 9.63 ± 1.66 | 135 ± 5.99 | Cc1cc(C)c(C(=O)NCc2nn(CC(=O)NN)c(=S)o2)c(S)n1 [Compound 4, N-{[4-(2-hydrazinyl-2-oxoethyl)-5-sulfanylidene-4,5-dihydro-1,3,4-oxadiazol-2-yl]methyl}-4,6-dimethyl-2-sulfanylpyridine-3-carboxamide] | 57.5 ± 1.22 | 83 ± 8 | 69 ± 33 | 71.7 ± 5.8 |  |
| 236 to 239 | 6.37 ± 1.09 | 73.9 ± 3.03 | Cc1cc(C)c(C(=O)NCc2nn(CC(=O)NN=Cc3ccccc3)c(=S)o2)c(S)n1 [Compound 5, 4,6-Dimethyl-N-{[4-(2-(2-benzylidenehydrazinyl)-2-oxoethyl)-5-sulfanylidene-4,5-dihydro-1,3,4-oxadiazol-2-yl]methyl}-2-sulfanylpyridine-3-carboxamide] | 59 ± 1.49 | 87 ± 21 | 72 ± 21 | 84.3 ± 3.4 |  |
| 298 to 300 | 8.22 ± 5.98 | 154 ± 6.29 | Cc1cc(C)c(C(=O)NCc2nn(CC(=O)NN=Cc3ccc(C#N)cc3)c(=S)o2)c(S)n1 [Compound 9, 4,6-Dimethyl-N-{[4-(2-(2-(4-cyanobenzylidene)hydrazinyl)-2-oxoethyl)-5-sulfanylidene-4,5-dihydro-1,3,4-oxadiazole-2-yl]methyl}-2-sulfanylpyridine-3-carboxamide] | 59.4 ± 1.9 | 91 ± 19 | 76 ± 22 | 77.7 ± 4.41 |  |
| 278 to 280 | 6.19 ± 0.19 |  | Cc1cc(C)c(C(=O)NCc2nn(CC(=O)NN=Cc3ccc(Cl)cc3)c(=S)o2)c(S)n1 [Compound 10, 4,6-Dimethyl-N-{[4-(2-(2-(4-chlorobenzylidene)hydrazinyl)-2-oxoethyl)-5-sulfanylidene-4,5-dihydro-1,3,4-oxadiazole-2-yl]methyl}-2-sulfanylpyridine-3-carboxamide] | 59.9 ± 2.04 | 91 ± 14 | 85 ± 27 | 56.1 ± 5.42 | selectively inhibited the activity of COX-2 |
| 235 to 238 | 9.41 ± 4.8 | 157 ± 12.1 | CSc1ccc(/C=N\NC(=O)Cn2nc(CNC(=O)c3c(C)cc(C)nc3S)oc2=S)cc1 [Compound 8, 4,6-Dimethyl-N-{[4-(2-(2-(4-methysulfanylbenzylidene)hydrazinyl)-2-oxoethyl)-5-sulfanylidene-4,5-dihydro-1,3,4-oxadiazole-2-yl]methyl}-2-sulfanylpyridine-3-carboxamide] | 58.7 ± 1.94 | 80 ± 22 | 65 ± 20 | 71.1 ± 2.4 |  |
| 215 to 220 | 6.33 ± 0.56 | 148 ± 19.8 | Cc1ccc(C=NNC(=O)Cn2nc(CNC(=O)c3c(C)cc(C)nc3S)oc2=S)cc1 [Compound 7, 4,6-Dimethyl-N-{[4-(2-(2-(4-methylbenzylidene)hydrazinyl)-2-oxoethyl)-5-sulfanylidene-4,5-dihydro-1,3,4-oxadiazole-2-yl]methyl}-2-sulfanylpyridine-3-carboxamide] | 58.2 ± 2 | 95 ± 27 | 107 ± 38 | 47.7 ± 1.73 |  |
| 273 to 275 | 9.04 ± 2.84 | 66.8 ± 5.19 | Cc1cc(C)c(C(=O)NCc2nn(CC(=O)NN=Cc3cccc(Cl)c3)c(=S)o2)c(S)n1 [Compound 12, 4,6-Dimethyl-N-{[4-(2-(2-(3-chlorobenzylidene)hydrazinyl)-2-oxoethyl)-5-sulfanylidene-4,5-dihydro-1,3,4-oxadiazole-2-yl]methyl}-2-sulfanylpyridine-3-carboxamide] | 58.7 ± 2.21 | 79 ± 16 | 91 ± 43 | 52.8 ± 7.2 |  |
| 285 to 288 | 7.23 ± 0.49 | 84.4 ± 5.89 | Cc1cc(C)c(C(=O)NCc2nn(CC(=O)NN=Cc3ccccc3Br)c(=S)o2)c(S)n1 [Compound 13, 4,6-Dimethyl-N-{[4-(2-(2-(2-bromobenzylidene)hydrazinyl)-2-oxoethyl)-5-sulfanylidene-4,5-dihydro-1,3,4-oxadiazole-2-yl]methyl}-2-sulfanylpyridine-3-carboxamide] | 59.3 ± 3.43 | 69 ± 10 | 70 ± 30 | 65.4 ± 4.04 |  |
| 295 to 298 | 6.37 ± 0.19 | 145 ± 20.9 | Cc1cc(C)c(C(=O)NCc2nn(CC(=O)NN=Cc3ccc(F)cc3)c(=S)o2)c(S)n1 [Compound 6, 4,6-Dimethyl-N-{[4-(2-(2-(4-fluorobenzylidene)hydrazinyl)-2-oxoethyl)-5-sulfanylidene-4,5-dihydro-1,3,4-oxadiazole-2-yl]methyl}-2-sulfanylpyridine-3-carboxamide] | 58.2 ± 0.92 | 88 ± 4 | 74 ± 22 | 80.7 ± 5.6 |  |
